Patent publication US20260028365A1 (BIOGEN MA INC., priority 2022, published 2026)
Where two headings read alike, the source gives them in different places.

Columns and labels:
Tyk2 = Tyk2 (Homo sapiens (Human), UniProt P29597); test: pSTAT4 Cell Assay (MSD, NK92 cells); assay type: cell-based
JH2 domain of human Tyk2 = JH2 domain of human Tyk2 (Homo sapiens (Human), UniProt P29597); test: JH2 Biochemical Assay (TR-FRET probe displacement); assay type: binding
[1] = JH2 domain of human Tyk2, TR-FRET probe displacement
[2] = TR-FRET probe displacement, JH2 domain
[3] = TR-FRET probe displacement, JH2 domain of human Tyk2

Chain of JH2 domain of human Tyk2 (P29597 575-876): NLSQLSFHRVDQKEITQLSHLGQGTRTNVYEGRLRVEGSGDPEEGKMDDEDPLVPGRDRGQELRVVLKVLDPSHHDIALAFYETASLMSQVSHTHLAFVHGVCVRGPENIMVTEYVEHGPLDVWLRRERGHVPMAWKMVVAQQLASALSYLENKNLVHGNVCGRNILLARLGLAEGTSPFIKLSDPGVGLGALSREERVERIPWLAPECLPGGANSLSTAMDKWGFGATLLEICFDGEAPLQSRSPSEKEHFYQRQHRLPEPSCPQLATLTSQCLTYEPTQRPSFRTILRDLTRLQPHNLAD
Chain of Tyk2 (P29597 whole entry, the tested form may be a part): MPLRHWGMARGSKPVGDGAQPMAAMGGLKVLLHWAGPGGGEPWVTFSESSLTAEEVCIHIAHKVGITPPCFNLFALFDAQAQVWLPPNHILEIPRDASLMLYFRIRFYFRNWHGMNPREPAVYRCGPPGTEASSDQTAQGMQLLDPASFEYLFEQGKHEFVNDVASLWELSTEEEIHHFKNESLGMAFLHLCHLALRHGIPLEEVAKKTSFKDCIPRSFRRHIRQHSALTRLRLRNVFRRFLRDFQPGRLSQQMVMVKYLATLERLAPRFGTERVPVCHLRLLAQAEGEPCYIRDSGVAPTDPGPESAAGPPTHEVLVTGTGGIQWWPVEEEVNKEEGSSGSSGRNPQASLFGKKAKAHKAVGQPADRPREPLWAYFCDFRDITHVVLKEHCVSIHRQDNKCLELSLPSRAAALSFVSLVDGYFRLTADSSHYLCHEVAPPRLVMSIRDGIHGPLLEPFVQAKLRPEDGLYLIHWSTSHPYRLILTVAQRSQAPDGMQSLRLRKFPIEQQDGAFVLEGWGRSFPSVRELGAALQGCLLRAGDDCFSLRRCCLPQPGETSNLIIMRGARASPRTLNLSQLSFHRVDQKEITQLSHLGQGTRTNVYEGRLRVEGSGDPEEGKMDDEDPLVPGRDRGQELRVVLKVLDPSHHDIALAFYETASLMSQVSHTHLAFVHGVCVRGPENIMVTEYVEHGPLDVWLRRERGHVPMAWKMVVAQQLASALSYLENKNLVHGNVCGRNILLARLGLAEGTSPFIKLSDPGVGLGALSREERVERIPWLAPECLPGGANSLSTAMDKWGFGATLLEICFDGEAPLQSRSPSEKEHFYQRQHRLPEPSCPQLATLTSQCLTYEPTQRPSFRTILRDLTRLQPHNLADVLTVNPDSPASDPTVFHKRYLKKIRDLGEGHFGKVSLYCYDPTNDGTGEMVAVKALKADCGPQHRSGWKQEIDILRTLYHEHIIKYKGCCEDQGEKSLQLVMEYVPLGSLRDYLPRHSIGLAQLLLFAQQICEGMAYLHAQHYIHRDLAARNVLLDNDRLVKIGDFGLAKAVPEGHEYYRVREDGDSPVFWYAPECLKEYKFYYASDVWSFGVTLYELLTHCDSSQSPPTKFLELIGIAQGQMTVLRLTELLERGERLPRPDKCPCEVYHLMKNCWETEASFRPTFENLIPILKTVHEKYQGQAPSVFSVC

SMILES	IC50 (Tyk2; MSD)	IC50 (JH2 domain of human Tyk2; [1])	IC50 (Tyk2)	IC50 (JH2 domain of human Tyk2; [2])	IC50 (JH2 domain of human Tyk2; [3])
COc1cnc(-c2cnc(NC(C)=O)cc2Nc2cc(C)nc(C(C)(F)F)n2)nc1 [Example 656, N-(4-((2-(1,1-difluoroethyl)-6-methylpyrimidin-4-yl)amino)-5-(5-methoxypyrimidin-2-yl)pyridin-2-yl)acetamide]	≤ 10 nM	≤ 10 nM	–	–	–
CNC(=O)Nc1cc(Nc2cc(C)nc(C(C)(F)F)n2)c(-c2ccc(C#N)cn2)cn1 [Example 520, 1-(5-cyano-4′-((2-(1,1-difluoroethyl)-6-methylpyrimidin-4-yl)amino)-[2,3′-bipyridin]-6′-yl)-3-methylurea]	≤ 10 nM	≤ 10 nM	–	–	–
COc1cnc(NC(C)=O)cc1Nc1cc(OC2CC(C#N)C2)nc(C(C)(F)F)n1 (stereo not drawn) [Example 456, N-(4-((6-(3-cyanocyclobutoxy)-2-(1,1-difluoroethyl)pyrimidin-4-yl)amino)-5-methoxypyridin-2-yl)acetamide]	10 to 100 nM	≤ 10 nM	–	–	–
CCc1cc(Nc2cc(NC(=O)NC)ncc2-c2cnccn2)nc(C(C)(F)F)n1 [Example 919, 1-(4-((2-(1,1-difluoroethyl)-6-ethylpyrimidin-4-yl)amino)-5-(pyrazin-2-yl)pyridin-2-yl)-3-methylurea]	–	–	10 to 100 nM	≤ 10 nM	–
CC(=O)Nc1cc(Nc2cc(C)nc(C(C)(F)F)n2)c(OC[C@H](C)OC(C)(C)C)cn1 [Example 318, (S)-N-(5-(2-(tert-butoxy)propoxy)-4-((2-(1,1-difluoroethyl)-6-methylpyrimidin-4-yl)amino)pyridin-2-yl)acetamide]	100 to 1000 nM	–	–	–	≤ 10 nM
CCc1cc(Nc2cc(NC(C)=O)ncc2-c2ccc(N3CCOCC3)nn2)nc(C(C)(F)F)n1 [Example 863, N-(4-((2-(1,1-difluoroethyl)-6-ethylpyrimidin-4-yl)amino)-5-(6-morpholinopyridazin-3-yl)pyridin-2-yl)acetamide]	–	–	≤ 10 nM	≤ 10 nM	–
CC(=O)Nc1cc(Nc2cc(C)nc(C(C)(F)F)n2)c(-c2cc3n(n2)CCNC3)cn1 [Example 282, N-(4-((2-(1,1-difluoroethyl)-6-methylpyrimidin-4-yl)amino)-5-(4,5,6,7-tetrahydropyrazolo[1,5-a]pyrazin-2-yl)pyridin-2-yl)acetamide]	≤ 10 nM	–	–	–	≤ 10 nM
CCOc1cnc(NC(C)=O)cc1Nc1cc(O[C@H]2C[C@@H](F)C2)nc(C(C)(F)F)n1 [Example 458, N-(4-((2-(1,1-difluoroethyl)-6-((1s,3s)-3-fluorocyclobutoxy)pyrimidin-4-yl)amino)-5-ethoxypyridin-2-yl)acetamide]	≤ 10 nM	≤ 10 nM	–	–	–
COc1cc(-c2cnc(NC(C)=O)cc2Nc2ccnc(C(C)(F)F)n2)ncn1 [Example 193, N-(4-((2-(1,1-difluoroethyl)pyrimidin-4-yl)amino)-5-(6-methoxypyrimidin-4-yl)pyridin-2-yl)acetamide]	10 to 100 nM	–	–	–	≤ 10 nM
CC(=O)Nc1cc(Nc2cc(C)nc(C(C)(F)F)n2)c(OCc2nc(C)ns2)cn1 [Example 343, N-(4-((2-(1,1-difluoroethyl)-6-methylpyrimidin-4-yl)amino)-5-((3-methyl-1,2,4-thiadiazol-5-yl)methoxy)pyridin-2-yl)acetamide]	10 to 100 nM	–	–	–	≤ 10 nM
CC(=O)Nc1cc(Nc2ccnc(C(C)(F)F)n2)c(-c2ccc(N3C[C@@H]4C[C@H]3CO4)nn2)cn1 [Example 876, N-(5-(6-((1S,4S)-2-oxa-5-azabicyclo[2.2.1]heptan-5-yl)pyridazin-3-yl)-4-((2-(1,1-difluoroethyl)pyrimidin-4-yl)amino)pyridin-2-yl)acetamide]	–	–	≤ 10 nM	≤ 10 nM	–
CCc1cc(Nc2cc(NC(C)=O)ncc2-c2cnc(N(C)C)cn2)nc(C(C)(F)F)n1 [Example 856, N-(4-((2-(1,1-difluoroethyl)-6-ethylpyrimidin-4-yl)amino)-5-(5-(dimethylamino)pyrazin-2-yl)pyridin-2-yl)acetamide]	–	–	10 to 100 nM	≤ 10 nM	–
COCC(C)Oc1cnc(NC(C)=O)cc1Nc1cc(C)nc(C(C)(F)F)n1 (stereo not drawn) [Example 59, N-(4-((2-(1,1-difluoroethyl)-6-methylpyrimidin-4-yl)amino)-5-((1-methoxypropan-2-yl)oxy)pyridin-2-yl)acetamide]	100 to 1000 nM	–	–	–	≤ 10 nM
CC(=O)Nc1cc(Nc2cc(C)nc(C(C)(F)F)n2)c(-c2cc(CN3CCCC3)n(C)n2)cn1 [Example 803, N-(4-((2-(1,1-difluoroethyl)-6-methylpyrimidin-4-yl)amino)-5-(1-methyl-5-(pyrrolidin-1-ylmethyl)-1H-pyrazol-3-yl)pyridin-2-yl)acetamide]	–	–	≤ 10 nM	≤ 10 nM	–
CCc1cc(Nc2cc(NC(C)=O)ncc2-c2ccc(=O)n(C)n2)nc(C(C)(F)F)n1 [Example 865, N-(4-((2-(1,1-difluoroethyl)-6-ethylpyrimidin-4-yl)amino)-5-(1-methyl-6-oxo-1,6-dihydropyridazin-3-yl)pyridin-2-yl)acetamide]	–	–	10 to 100 nM	≤ 10 nM	–
CCOc1cnc(NC(C)=O)cc1Nc1cc(-c2cnn(C3CCC3)c2)nc(C(C)(F)F)n1 [Example 312, N-(4-((6-(1-cyclobutyl-1H-pyrazol-4-yl)-2-(1,1-difluoroethyl)pyrimidin-4-yl)amino)-5-ethoxypyridin-2-yl)acetamide]	≤ 10 nM	–	–	–	≤ 10 nM
CC(=O)Nc1cc(Nc2ccnc(C(C)(F)F)n2)c(-c2cncc(OC3COC3)n2)cn1 [Example 690, N-(4-((2-(1,1-difluoroethyl)pyrimidin-4-yl)amino)-5-(6-(oxetan-3-yloxy)pyrazin-2-yl)pyridin-2-yl)acetamide]	10 to 100 nM	10 to 100 nM	–	–	–
CO[C@H]1C[C@@H](Oc2cnc(NC(C)=O)cc2Nc2cc(C(C)C)nc(C(C)(F)F)n2)C1 [Example 409, N-(4-((2-(1,1-difluoroethyl)-6-isopropylpyrimidin-4-yl)amino)-5-((1s,3s)-3-methoxycyclobutoxy)pyridin-2-yl)acetamide]	10 to 100 nM	≤ 10 nM	–	–	–
CCc1cc(Nc2cc(NC(C)=O)ncc2-c2cnc(CN3CCCC3)cn2)nc(C(C)(F)F)n1 [Example 893, N-(4-((2-(1,1-difluoroethyl)-6-ethylpyrimidin-4-yl)amino)-5-(5-(pyrrolidin-1-ylmethyl)pyrazin-2-yl)pyridin-2-yl)acetamide]	–	–	≤ 10 nM	≤ 10 nM	–
CC(=O)Nc1cc(Nc2ccnc(C(C)(F)F)n2)c(-c2ccc(N3CCCC3)nn2)cn1 [Example 845, N-(4-((2-(1,1-difluoroethyl)pyrimidin-4-yl)amino)-5-(6-(pyrrolidin-1-yl)pyridazin-3-yl)pyridin-2-yl)acetamide]	–	–	≤ 10 nM	≤ 10 nM	–
CC(=O)Nc1cc(Nc2cc(C)nc(C(C)(F)F)n2)c(OC(C)C2CC2)cn1 (stereo not drawn) [Example 83, N-(5-(1-cyclopropylethoxy)-4-((2-(1,1-difluoroethyl)-6-methylpyrimidin-4-yl)amino)pyridin-2-yl)acetamide]	100 to 1000 nM	–	–	–	≤ 10 nM
